# Experimental data taken from patent US7071179B2, “Method of locking 1α-OH of vitamin D compounds in axial orientation” (Wisconsin Alumni Research Foundation, priority 1998, dated 2006).
# Experiments:
# [1] = biological testing of 10,19-dihydrovitamin D3 compounds, in vivo biological response; settings: compared among the 1α,25-dihydroxy-10,19-dihydrovitamin D3 compounds tested
# [2] = tested on: intestinal calcium transport; assay: intestinal calcium transport activity; settings: in vivo
compound,measurement,setting,value
"CC(CCCC(C)(C)O)C1CCC2C(=CC=C3CC(O)CC(O)C3C)CCCC21C [1α,25-dihydroxy-10(S), 19-dihydrovitamin D3]",in vivo biological response,[1],greatest in vivo biological response
same,activity on intestinal calcium transport,[2],very significant activity
